“And” between values parts separate entries of the source, which are not always exact repeats. Equal entries are not always repeated.
Tested on: Fecal coliforms
Type: cell-based

CC(=O)OO [A, peroxyacetic acid]
Category: >1000 and <1000

Reference: patent publication US11167162B2 (priority 2017, dated 2021)
